Consider 1 compound from patent US7049305B2, “Bile-acid conjugates providing for sustained systemic concentration of drugs” (XenoPort, Inc., priority 2000, dated 2006).

For the experiment, the target named is T1, rPEPT1 (Rattus norvegicus, UniProt P51574).
T1 construct: expressed in transfected cells; host or cells: CHO cells
T1 sequence (P51574 1-710): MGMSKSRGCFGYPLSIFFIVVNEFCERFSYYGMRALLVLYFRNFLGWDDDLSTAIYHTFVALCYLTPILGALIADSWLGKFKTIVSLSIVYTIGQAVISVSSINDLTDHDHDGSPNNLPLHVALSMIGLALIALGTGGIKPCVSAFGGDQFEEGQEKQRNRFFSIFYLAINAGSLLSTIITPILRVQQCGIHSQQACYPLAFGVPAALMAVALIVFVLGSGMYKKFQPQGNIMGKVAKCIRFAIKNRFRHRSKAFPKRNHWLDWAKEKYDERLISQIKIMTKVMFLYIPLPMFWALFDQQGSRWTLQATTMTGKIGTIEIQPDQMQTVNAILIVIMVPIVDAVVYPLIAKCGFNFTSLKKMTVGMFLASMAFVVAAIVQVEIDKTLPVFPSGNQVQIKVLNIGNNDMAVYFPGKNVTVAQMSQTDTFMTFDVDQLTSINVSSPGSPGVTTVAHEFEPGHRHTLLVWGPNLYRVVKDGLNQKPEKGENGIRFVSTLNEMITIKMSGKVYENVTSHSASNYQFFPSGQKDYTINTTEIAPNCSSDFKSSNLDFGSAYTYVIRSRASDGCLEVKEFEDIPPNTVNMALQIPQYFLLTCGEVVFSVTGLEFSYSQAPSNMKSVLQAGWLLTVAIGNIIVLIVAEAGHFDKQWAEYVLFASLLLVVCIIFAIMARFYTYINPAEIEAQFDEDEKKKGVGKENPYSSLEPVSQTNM
Nature of the experiment: Transport-induced currents in Xenopus oocytes expressing rPEPT1. It counts as cell-based. As to conditions: response relative to Gly-Sar, test compound 1 mM. The procedure:
Rat and human PEPT1 and PEPT2 expressing CHO cell lines were prepared as described in PCT Application WO01/20331. Gabapentin-containing dipeptides were evaluated for interaction with the peptide transporters using a radiolabeled substrate uptake assay in a competitive inhibition format, as described in PCT Application WO01/20331. Transport-induced currents were also measured in Xenopus oocytes transfected with rat and human PEPT1 and PEPT2.

In the case of `NCC(=O)NCC1(CC(=O)O)CCCCC1` [Gly-Gabapentin], the “% Max. (Gly-Sar)” value worked out at 76%.
